Experimental data published in US8404664B2, “Phosphonated Rifamycins and uses thereof for the prevention and treatment of bone and joint infections” (Targanta Therapeutics, Inc., priority 2005, dated 2013).
Converted amounts (≈) assume the structure as drawn.

How the values were obtained:
[1] = Regeneration of drug from bone powder-bound prodrug; format: in vitro ADME; details: for % Conversion of bone-bound prodrug to parent drug: 24 h incubation, 37° C.; for Impact of the medium on the rate of regeneration of parent drug (in words): serum compared to PBS
Experimental: Amounts of parent drug “regenerated” from the phosphonated prodrug were measured as follows. Washed bone powder-bound prodrugs from the above experiment were resuspended in 400 μL PBS+2% DMSO or in 400 μL 50% (v/v in PBS+2% DMSO) human or rat serum. The suspension was incubated overnight at 37° C., centrifuged at 13,000 rpm for 2 min and the supernatant was recovered. The amount of regenerated parent drug in the supernatant was determined by measurements using the microbiological assay that was previously described for the prodrugs themselves. The amount of prodrug was deduced from standard curves of known amounts of parent drug that were used as reference for each experiment.

[2] = system: S. aureus ATCC 43300 (Fluoroquinolone sensitive MRSA); experiment: Antibacterial susceptibility (MIC), NCCLS broth microdilution; format: cell-based
Experimental: (§1) Susceptibility of S. aureus strains to the known antibiotics and synthesized compounds was determined by following the guidelines set by NCCLS (M26-A). Compounds were diluted two-fold serially in DMSO and transferred to cation-adjusted Mueller Hinton broth (CAMHB; Becton Dickinson). 50 μL of compounds diluted in CAMHB was mixed with 100 μL of bacteria diluted in CAMHB in 96-well microtiter plates. The final concentration of micro-organisms in the assay was 5×10^5 c.f.u. per mL and the final concentration of DMSO in the assay was 1.25%. Assays were set up in duplicate and incubated at 37° C. for 18 h. The lowest concentration of compound that inhibited visible growth was reported as the minimum inhibitory concentration (MIC).

S. aureus RN4220 = experiment: as above; format: cell-based; details: CAMHB, 37° C., 18 h
Experimental: as §1

S. aureus ATCC 13709 [3] = experiment: as above; format: cell-based; details: for Antibacterial activity (in words, summary of Table 1): summary over the strains of Table 1
Experimental: as §1

[4] = system: S. aureus BK85 (Fluoroquinolone resistant MRSA); experiment: as above; format: cell-based
Experimental: as §1

[5] = system: S. aureus ATCC 13709 Novobiocin resistant mutant (bone infection); experiment: Prophylactic efficacy in rat model of S. aureus bone infection; format: in vivo
Experimental: Specifically, a spontaneous Novobiocin resistant mutant strain of S. aureus ATCC 13709 (a clinical osteomyelitis isolate), was grown overnight at 37° C. in brain heart infusion broth (BHIB). After 16 h of growth, cells were subcultured into fresh BHIB and incubated for 4 to 5 h at 37° C. The cells were washed twice with phosphate-buffered saline (PBS) and resuspended in BHIB supplemented with 10% (vol./vol.) fetal bovine serum at a density of approximately 10^10 colony forming units (CFU)/ml (based upon turbidimetry). The suspension was aliquoted and a portion was used to check the CFU count. The culture was stored frozen (−80° C.) and was used without subculture. For use as an inoculum the culture was thawed, diluted in PBS and kept in an ice bath until it was used.
Animals were infected as described by O'Reilly et al. (Antimicrobial Agents and Chemotherapy (1992), 36(12): 2693-97) to generate the bone infection. Female CD rats (age, 57 to 70 days; n=5/group; Charles River, St-Constant, Canada) were anaesthetized by isofluorane before and during the surgery. Following complete induction of anesthesia, the rat was placed ventral side up and hair was shaved from the surgical site. The skin over the leg was cleaned and disinfected (proviodine-ethanol 70%). A longitudinal incision below the knee joint was made in the sagital plane. The incision was made over the bone below the “knee joint” (tibia head or condyle) but not completely extending to the ankle. A high speed drill fitted with a 2 mm bulb bit was used to drill a hole into the medullar cavity of the tibia. Rats were injected intra-tibially with 0.05 ml 5% sodium morrhuate (sclerosing agent) and then with 0.05 ml of S. aureus suspension (ca. 2×10^7 CFU/rat). The hole was sealed by applying a small amount of dry dental cement which immediately absorbs fluids and adheres to the site. The wound was closed using 3 metal skin clips. Moxifloxacin (as a positive control) was injected once at 10 mg/kg intravenously 1 h postinfection in saline, while the Rifamycin derived prodrugs (prepared in 0.9% saline) were injected at the dose indicated in Table 3 as a single intravenous bolus at different time points prior to the infection.
Infected rats were sacrificed by CO2 asphyxiation 24 h postinfection to monitor the bacterial CFU count. Infected tibiae were removed, dissected free of soft tissue, and weighed. The bones were ground, resuspended in 5 ml 0.9% NaCl, serially diluted and processed for quantitative cultures. For compounds 50, 68 and 81, 1 ml of the 0.9% NaCl solution was added to 50 mg of charcoal before serial dilutions. Treatment efficacy was measured in terms of Log viable bacteria (Log CFU per gram of bone). […] The limit of detection is 2 Log CFU. […] Differences were considered significant when the P value was <0.05 when comparing treated infected animals to the untreated infected ones. The doses used, the amount of time separating the treatment from the time of infection and the treatment outcomes are shown in Table 3.

[6] = system: E. coli LBB925 (tolC mutant); experiment: Antibacterial susceptibility (MIC), NCCLS broth microdilution; format: cell-based; details: tolC mutant
[7] = system: S. aureus ATCC 13709 Novobiocin and Rifampicin resistant variant; experiment: microbe, parasite or virus in culture; format: cell-based; details: for Minimum inhibitory concentration, S. aureus ATCC 13709 variant: Novobiocin and Rifampicin resistant variant
Experimental: as §1

S. aureus ATCC 13709 [8] = experiment: Antibacterial susceptibility (MIC) in the presence of serum; format: cell-based
Experimental: as §1
Susceptibility testing experiments were also carried out in the presence of serum.
These experiments were carried out similar to the susceptibility testing with the following modifications. 75 μL of compounds diluted in CAMHB was mixed with 75 μL of bacteria diluted in 100% serum from any given source (commercial pooled mouse serum (MS) and human serum (HS), Equitech-Bio Inc.) or diluted in 8% purified human serum albumin (HSA) (Calbiochem). The final concentration of animal serum in the assay was 50% and the final concentration of purified human serum albumin in the assay was 4%; the concentrations of all other components were identical to those described for susceptibility testing.

SMILES	Regeneration of parent drug once bound to bone (in words) [1]	% Conversion of bone-bound prodrug to parent drug ([1]; 50% Rat Serum) [%]	% Conversion of bone-bound prodrug to parent drug ([1]; PBS)	Impact of the medium on the rate of regeneration of parent drug (in words) [1]	Minimum inhibitory concentration, S. aureus ATCC 43300 [2] [mg/L]	Minimum inhibitory concentration, S. aureus RN4220 (S. aureus RN4220) [mg/L]	Minimum inhibitory concentration, S. aureus ATCC 13709 (S. aureus ATCC 13709 [3]) [mg/L]	Minimum inhibitory concentration, S. aureus BK85 [4] [mg/L]	Prophylactic effect (in words) ([5]; rat bone infection, doses and times of Table 3, t-test p<0.05)	Measured bacterial titer ([5]; rat tibia 24 h postinfection, single dose 12 mg/kg parent drug equivalent, 1 day prior to infection)	Minimum inhibitory concentration, E. coli LBB925 [6] [mg/L]	Activity against the Rifampicin resistant variant of S. aureus ATCC13709 (in words) [7]	Minimum inhibitory concentration, S. aureus ATCC 13709 variant [7] [mg/L]	Impact of serum on the MICs (in words) (S. aureus ATCC 13709 [8])	Minimum inhibitory concentration, S. aureus ATCC 13709 + 50% Human Serum (S. aureus ATCC 13709 [8]) [mg/L]	Minimum inhibitory concentration, S. aureus ATCC 13709 + 50% Mouse Serum (S. aureus ATCC 13709 [8]) [mg/L]	Antibacterial activity (in words, summary of Table 1) (S. aureus ATCC 13709 [3])	Minimum inhibitory concentration, S. aureus ATCC 13709 + 50% Rat Serum (S. aureus ATCC 13709 [8]) [mg/L]
CO[C@H]1/C=C/O[C@@]2(C)Oc3c(C)c(O)c4c(c3C2=O)C2=NC3(CCN(CC(C)C)CC3)NC2=C(NC(=O)/C(C)=C\C=C\[C@H](C)[C@H](OC(=O)CNC(=O)CC(P(=O)(O)O)P(=O)(O)O)[C@@H](C)[C@@H](O)[C@@H](C)[C@H](OC(C)=O)[C@@H]1C)C4=O [Compound 21, 21-O-(N-(3,3-Bisphosphonopropanoyl)-glycinoyl)-1′,4-didehydro-1-deoxy-1,4-dihydro-5′-(2-methylpropyl)-1-oxorifamycin XIV]	not able to regenerate	0.02	<lod	not significantly impacted	16 (≈ 14.3 µM)	32 (≈ 28.6 µM)	16 (≈ 14.3 µM)	16 (≈ 14.3 µM)	lacks efficacy	6.59 ± 0.90 Log CFU/g of bone	>128							
CCN(CC)CC.CCN(CC)CC.CO[C@H]1/C=C/O[C@@]2(C)Oc3c(C)c(O)c4c(c3C2=O)C2=NC3(CCN(CC(C)C)CC3)NC2=C(NC(=O)/C(C)=C\C=C\[C@H](C)[C@H](OC(=O)CCC(=O)NCCCC(=O)NC(P(=O)(O)O)P(=O)(O)O)[C@@H](C)[C@@H](O)[C@@H](C)[C@H](OC(C)=O)[C@@H]1C)C4=O [Compound 45, 21-O-(3-(3-((bisphosphonomethyl)carbamoyl)propylcarbamoyl)propanoyl)-1′,4-didehydro-1-deoxy-1,4-dihydro-5′-(2-methylpropyl)-1-oxorifamycin XIV]	not able to regenerate	0.002	<lod	not significantly impacted	64	64	32	64			>128	complete lack of activity	>128	no impact	64	128	near complete loss of activity	
CO[C@H]1/C=C/O[C@@]2(C)Oc3c(C)c(O)c4c(=O)c(c5oc6cc(N7CCN(CC(C)C)CC7)cc(O)c6nc-5c4c3C2=O)NC(=O)/C(C)=C\C=C\[C@H](C)[C@H](OC(=O)COC(=O)CCC(=O)NC(P(=O)(O)O)P(=O)(O)O)[C@@H](C)[C@@H](O)[C@@H](C)[C@H](OC(C)=O)[C@@H]1C [Compound 84, 21-O-(2-((3-(bisphosphonomethyl)carbamoyl)propanoyloxy)acetyl)-1′,4-Didehydro-1-deoxy-1,4-dihydro-3′-hydroxy-5′-[4-(2-methylpropyl)-1-piperazinyl]-1-oxorifamycin VIII]	not able to regenerate	0.12	<lod	significant acceleration	1 (≈ 0.786 µM)	1 (≈ 0.786 µM)	1 (≈ 0.786 µM)	1 (≈ 0.786 µM)			>128	complete lack of activity	>128		16	16		1
CCN(CC)CC.CCN(CC)CC.CO[C@H]1/C=C/O[C@@]2(C)Oc3c(C)c(O)c4c(c3C2=O)C2=NC3(CCN(CC(C)C)CC3)NC2=C(NC(=O)/C(C)=C\C=C\[C@H](C)[C@H](OC(=O)CCC(=O)NC(P(=O)(O)O)P(=O)(O)O)[C@@H](C)[C@@H](O)[C@@H](C)[C@H](OC(C)=O)[C@@H]1C)C4=O [Compound 39, 21-O-(3-((bisphosphonomethyl)carbamoyl)propanoyl)-1′,4-didehydro-1-deoxy-1,4-dihydro-5′-(2-methylpropyl)-1-oxorifamycin XIV]	not able to regenerate				>128	>128	>128	>128			128	complete lack of activity	>128	no impact	>128	>128	near complete loss of activity	64
